According to PubChem BioAssay (NCI):
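Following 48 hours of exposure in 96-well plates, responses at five concentrations were used to interpolate endpoints linearly. Abbreviation: GI50, concentration required for 50% inhibition of growth. TGI marks complete inhibition of growth.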

Assays:
Test in all cases: NCI-60 cell line screen, 48 h
[1] = test system: UACC-62 melanoma
[2] = test system: ACHN renal
[3] = test system: OVCAR-5 ovarian
[4] = test system: RXF 393 renal
[5] = test system: COLO 205 colon
[6] = test system: OVCAR-4 ovarian
[7] = test system: M14 melanoma
[8] = test system: A549 NSCLC
[9] = test system: HCT-116 colon
[10] = test system: HT29 colon

Compound	TGI [1]	TGI [2]	TGI [3]	TGI [4]	TGI [5]	TGI [6]	TGI [7]	TGI [8]	TGI [9]	TGI [10]	GI50 [1]	GI50 [2]	GI50 [3]	GI50 [4]	GI50 [5]	GI50 [6]	GI50 [7]	GI50 [8]	GI50 [9]	GI50 [10]
O=C(O)\C=C/C=C/C=C/C=C/C(=O)O	> 100 µM	> 100 µM	> 100 µM	> 100 µM	> 100 µM	> 100 µM	> 100 µM	> 100 µM	> 100 µM	> 100 µM										
Nc1ccc([As](=O)(O)O)cc1	> 100 µM	> 100 µM	> 100 µM	> 100 µM	> 100 µM	> 100 µM	> 100 µM	> 100 µM	> 100 µM	> 100 µM										
NS(=O)(=O)c1ccc(C(=O)O)cc1	> 100 µM	> 100 µM	> 100 µM	> 100 µM	> 100 µM	> 100 µM	> 100 µM	> 100 µM	> 100 µM	> 100 µM										
CC(C)(c1ccccc1)c1ccc(Oc2ccc3c(c2)-c2nc-3nc3[nH]c(nc4nc(nc5[nH]c(n2)c2ccc(Oc6ccc(C(C)(C)c7ccccc7)cc6)cc52)-c2cc(Oc5ccc(C(C)(C)c6ccccc6)cc5)ccc2-4)c2ccc(Oc4ccc(C(C)(C)c5ccccc5)cc4)cc32)cc1	> 100 µM	> 100 µM	> 100 µM	97 µM	> 100 µM		> 100 µM	> 100 µM	> 100 µM	> 100 µM										
Cn1ncc2c(=O)[nH]c(-c3ccccc3)nc21	> 100 µM	> 100 µM	> 100 µM	> 100 µM	> 100 µM	> 100 µM	> 100 µM	> 100 µM		> 100 µM										
CCCCCCCCCCCCCCC(C(=O)[O-])[n+]1ccccc1 (stereo not drawn)	> 100 µM	> 100 µM	> 100 µM	74.7 µM	> 100 µM	> 100 µM	> 100 µM	> 100 µM	> 100 µM	> 100 µM										
Cc1cccc(NC(N)=S)c1	> 100 µM	> 100 µM	> 100 µM	> 100 µM		> 100 µM	> 100 µM		> 100 µM	> 100 µM										
N=C(N)SC(c1ccccc1)c1ccccc1	30.8 µM	29.8 µM	32.2 µM	19.4 µM	47.1 µM	37.6 µM	23.7 µM	95.2 µM	24.6 µM	34.4 µM										
CC1(C)CCCC2(C)C3=C(CCC12)C(=O)OC3 (stereo not drawn)	> 100 µM	> 100 µM	> 100 µM	> 100 µM	> 100 µM	> 100 µM	> 100 µM	> 100 µM	> 100 µM	> 100 µM										
O=C(Nc1ccc(-n2ccc3c(NC(=O)c4ccccc4)ncnc32)cc1)Nc1ccc(Cl)c(C(F)(F)F)c1	4.59 µM	3.62 µM	3.89 µM	3.28 µM	5.86 µM	3.48 µM	3.64 µM	3.58 µM	2.96 µM	3.14 µM	1.9 µM	1.58 µM	1.66 µM	1.5 µM	2.63 µM	1.57 µM	1.66 µM	1.67 µM	1.47 µM	1.52 µM
Cc1cc(N2CCCCC2)nc(NCc2cc(Nc3ccnc4cc(Cl)ccc34)ccc2F)n1	3.44 µM	3.25 µM		3.47 µM	1.4 µM	2.95 µM	3.69 µM	3.22 µM	3.5 µM	2.21 µM	1.62 µM	1.66 µM		1.79 µM	0.329 µM	1.39 µM	1.92 µM	1.7 µM	1.64 µM	0.795 µM
O=C1CC(c2ccccc2)NCCCCN2CC(CN1)C(C(O)c1ccccc1)C2=O (stereo not drawn)	> 100 µM	> 100 µM	> 100 µM	> 100 µM	> 100 µM	> 100 µM	> 100 µM	> 100 µM	> 100 µM	> 100 µM										
CC1(C)CCc2cc3c(cc2O1)OC(C)(C)CC3=O	> 100 µM	> 100 µM	> 100 µM		> 100 µM	> 100 µM	> 100 µM	> 100 µM	> 100 µM	> 100 µM										
